Source: patent US20180230160A1, “2-AMINO-7A-PHENYL-3,4,4A,5,7,7A-HEXAHYDROFURO[3,4-B]PYRIDINES AS BACE1 INHIBITORS” (H. Lundbeck A/S, priority 2015, published 2018)
pKi: −log10 of the molar value. Read-outs that look alike come from different tables or passages of the source.

What was measured:
human BACE1 [1] = target: T1, human BACE1 (Homo sapiens, UniProt P56817); experiment: BACE1 efficacy assay (FRET-based, commercial BACE1 kit); format: biochemical; set-up: purchased Life Technologies P2985; conditions: 10 μM test compound
T1 sequence (P56817 46-501): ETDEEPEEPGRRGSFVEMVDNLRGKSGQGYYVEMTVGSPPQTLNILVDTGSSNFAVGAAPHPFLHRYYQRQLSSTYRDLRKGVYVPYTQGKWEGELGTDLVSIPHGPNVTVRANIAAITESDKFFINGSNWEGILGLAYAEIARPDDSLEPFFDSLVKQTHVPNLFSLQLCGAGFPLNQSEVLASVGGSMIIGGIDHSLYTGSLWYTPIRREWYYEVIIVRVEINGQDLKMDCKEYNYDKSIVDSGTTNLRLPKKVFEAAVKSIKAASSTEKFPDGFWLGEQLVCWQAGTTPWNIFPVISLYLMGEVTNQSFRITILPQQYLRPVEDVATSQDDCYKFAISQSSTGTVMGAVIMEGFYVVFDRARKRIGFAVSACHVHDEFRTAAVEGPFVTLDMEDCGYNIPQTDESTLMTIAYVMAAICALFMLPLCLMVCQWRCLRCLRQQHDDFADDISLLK
Experimental: The efficacy assay was performed as a FRET-based assay using a commercially available BACE1 kit (Life Technologies, P2985). 2 μl test compound at 10 μM (final concentration) and 15 μl BACE1 enzyme from the kit (final concentration 3 nM) were preincubated for 15 minutes at room temperature before addition of 15 μl of substrate from the kit (250 nM final concentration) and incubated for additional 90 minutes at room temperature. The assay plate was subsequently read in a Pherastar (Ex540/Em590). The enzyme activity observed in presence of test compound were normalized to the enzyme activity observed in presence of buffer and 10 μM (final concentration) of the high affinity BACE1 reference inhibitor (S)-6-[3-Chloro-5-(5-prop-1-ynyl-pyridin-3-yl)-thiophen-2-yl]-2-imino-3,6-dimethyl-tetrahydropyrimidin-4-one, respectively. The efficacy of the test compounds was evaluated at 10 μM (final concentration) and defined as the percent inhibition of the enzyme activity using the equation % inhibition=100%−normalized enzyme activity in percent.

human BACE1 [2] = target: T1, human BACE1; experiment: BACE1 binding assay (SPA-based radioligand binding); set-up: biotin (biotinylated form); made in house; host or cells: Freestyle HEK293 cells; conditions: pH 4.5, 10 nM radioligand, Ki=IC50/(1+L/Kd)
Experimental: The binding assay was performed as SPA-based assay using a biotinylated form of human BACE1 recombinantly expressed and subsequently purified from Freestyle HEK293 cells. The binding assay was run in a 50 mM sodium acetate buffer, pH 4.5 containing 50 mM NaCl and 0.03% Tween-20 in white clear bottom 384 plates (Corning #3653). 10 nM (final concentration) radioligand ([^3H]—N-((1S,2R)-1-benzyl-3-cyclopropylamino-2-hydroxy-propyl)-5-(methanesulfonyl-methyl-amino)-N—((R)-1-phenyl-ethyl)-isophthalamide) (TRQ11569 purchased from GE Healthcare) was mixed with test compound at a given concentration, 6 nM (final concentration) human BACE1 and 25 μg Streptavidin coated PVT core SPA beads (RPNQ0007, GE Healthcare Life Sciences) in a total volume of 40 μl. Several concentrations of each test compound were tested in the assay for […] determination. The plates were incubated for one hour at room temperature and counted in a Wallac Trilux counter. Total and non-specific binding were determined using buffer and 1 μM (final concentration) of the high affinity BACE1 reference inhibitor (S)-6-[3-chloro-5-(5-prop-1-ynyl-pyridin-3-yl)-thiophen-2-yl]-2-imino-3,6-dimethyl-tetrahydro-pyrimidin-4-one, respectively. For each test compound, a 1050 value (the concentration mediating 50% inhibition of the specific binding of the radioligand) was determined from concentration-response curve and used to calculate the Ki from the equation Ki=IC50/(1+L/Kd), where L and Kd are the final concentration of the radioligand used in the assay and the dissociation constant of the radioligand, respectively. The Kd of the radioligand was determined from saturation binding experiments.

P-gp (MDR1) = experiment: MDCK-MDR1 assay (permeability, efflux ratio); format: in vitro ADME; conditions: dog, Papp BA/Papp AB, 60-minute incubation
Experimental: The permeability of the test compounds was assessed in MDCK-MDR1 cells that were cultured to confluency (4-6 days) in a 96 transwell plate. Test compounds were diluted with the transport buffer (HBSS+1% BSA) to a concentration of 0.5 μM and applied to the apical or basolateral side of the cell monolayer. Permeation of the test compounds from A to B direction or B to A direction was determined in triplicate over a 60-minute incubation time at 37° C. and 5% CO2 with a relative humidity of 95%. Test compounds were quantified by LC-MS/MS analysis based on the peaks area ratios of analyte/IS in both the receiver and donor wells of the transwell plate. The apparent permeability coefficient Papp (cm/s) was calculated using the equation: […]
Where dCr/dt is the cumulative concentration of compound in the receiver chamber as a function of time (μM/s); Vr is the solution volume in the receiver chamber (0.05 mL on the apical side; 0.25 mL on the basolateral side); A is the surface area for the transport, i.e. 0.0804 cm^2 for the area of the monolayer; CO is the initial concentration in the donor chamber (μM).

[3] = Compound exposure in rat brain and plasma after oral dosing (DMPK analysis); format: in vivo; conditions: male, Sprague Dawley, 3 hours post dose; for concentration at 3 h: read-out: Exp (exposure); for Kp at 3 h: brain/plasma, read-out: Brain/Plasma ratio
Experimental: (§1) Young adult Male Sprague Dawley rats of approximately 250 g weight were purchased from Charles River and received 0-30 mg/kg of vehicle (10% HP betaCD+1M MeSO4, pH 2.5) or test compounds (dissolved in vehicle) only by oral gavage (p.o). The compounds are dosed at a volume of 5 ml/kg. Cohorts of 5-10 animals were established for each treatment condition.
(§2) At T=180 minutes after initial dosing the animals were stunned and decapitated with a guillotine. Trunk-blood was sampled in EDTA coated tubes after decapitation of the animal. The blood was centrifuged at 2200G at 4° C. for 15 minutes and the plasma was collected and frozen at −80° C. The blood was aliquoted for Aβ ELISA and DMPK analysis. Immediately following sacrifice, the brain was extracted and split into 2 halves. The right hemibrains were snap frozen on dry ice and stored at −80° C. The left half was dissected; with the front forebrain taken for Aβ ELISA and the remainder used for DMPK analysis. These samples were also snap frozen on dry ice and stored at −80° C. until use for analysis.
The results of the administration of representative Compounds of Examples 1, 2, 5, […], of brain and plasma samples collected at 3 hours post dose and then following exposures, as described above, are tabulated below.

Aβ40 peptide = experiment: Assessment of Aβ peptide levels in rat brain and plasma following BACE1 inhibition (Aβ40 ELISA); format: in vivo; conditions: 3 hours post dose, vs vehicle
Experimental: Assessment of Aβ Peptide Levels in Rat Brain and Plasma Following BACE1 Inhibition. Animals.
as §1, §2
The cortex samples were thawed slightly on wet ice before they were homogenized with a small volume dispersing instrument (T10 basic ULTRA-TURRAX®) which was set at speed 5 for approximately 5-7 sec. The tissue was processed in a 10 times volume of the weight, for example 100 mg of tissue was homogenized in 1000 μL of Homogenization buffer. Homogenization buffer: 50 ml Milli Q water+50 nM NaCl+0.2% Diethylamin (DEA)+1 tablet of Complete Protease inhibitor cocktail+1 nM 4-(2-aminoethyl) benzenesulfonyl fluoride hydrochloride irreversible serine protease inhibitor (AEBSF).
After homogenization 450 μL aliquots of the samples are collected into a 1.5 ml Eppendorf tube and placed on wet ice, 0.5% NP-40 (50 ul) was added to all samples and then they were incubated on ice for 30 min. After which all samples were sonicated using an Ultrasonic homogenizer with 20 kHz homogeneous sound (SONOPLUS HD2070, Bandelin Electronic) 10 pulse set at 12-13% power to extract all the Aβ species. The samples were then centrifuged (Ole Dich 157 MPRF Micro centrifuge) at 20000G for 20 minutes at 4° C. After centrifugation 285 μL of the supernatant was pipetted into 600 μL microtubes tubes and neutralized with 15 μL of 1M Tris-HCL buffer.
WAKO 294-62501 Human/Rat Abeta amyloid (40) kit was used for all ELISA analyses. 30 μL plasma samples or 30 μL of the cortex supernatants generated as described above were placed in 600 μL microtubes tubes on wet ice. To this 30 μL of 8M urea (AppliChem A1049, 9025) was added to generate a 2-fold dilution. Both plasma and cortex supernatants were incubated on ice for 30 min. Standard rows were prepared from the standard peptide stock provided in the kit and standard diluent containing 1.6M urea (200 μL 8M urea+800 μL of standard diluent) and 0.8M urea (400 μL 8M Urea+3600 μL Standard diluent). A serial 2-fold dilution of Aβ40 from 100 pmol/ml to 0 pmol/L was prepared for the assay.
After incubation with urea, all samples were further diluted by addition of 5 times standard diluent from the Kit. This was done by adding 240 μL Standard Diluent to 60 μL sample/urea mixture, which was then mixed well. 100 μL of each diluted sample was pipetted into designated wells of the ELISA plate in duplicates. The plate was then covered and incubated overnight at 4° C. The following day, the ELISA kit was brought to room temperature before use. The incubated plate was washed 5 times with the 20× washing solution diluted in Milli Q water. 100 μL HRP-conjugate was applied to each well, and the plate was covered and incubates at 4° C. for 1 hr. The wash was repeated again for 5 times. 100 μL 3,3′,5,5′-Tetramethylbenzidine (TMB) solution was applied to each well and the plate was covered and incubated in the dark at room temperature for 30 minutes. […]

SMILES	inhibition at 10 µM (human BACE1 [1]) [%]	pKi (human BACE1 [2])	efflux ratio at 60 min, 0.5 μM (P-gp (MDR1))	concentration at 3 h ([3]; Brain, 10 mg/kg p.o.) [ng/g]	concentration at 3 h ([3]; Brain, 30 mg/kg p.o.) [ng/g]	concentration at 3 h ([3]; Plasma, 10 mg/kg p.o.) [ng/g]	concentration at 3 h ([3]; Plasma, 30 mg/kg p.o.) [ng/g]	Kp at 3 h ([3]; 10 mg/kg p.o.)	Kp at 3 h ([3]; 30 mg/kg p.o.)	Aβ40 reduction (Aβ40 peptide; Brain, 10 mg/kg p.o.) [%]	Aβ40 reduction (Aβ40 peptide; Brain, 30 mg/kg p.o.) [%]	Aβ40 reduction (Aβ40 peptide; Plasma, 10 mg/kg p.o.) [%]	Aβ40 reduction (Aβ40 peptide; Plasma, 30 mg/kg p.o.) [%]
C[C@@]1(F)C[C@]2(F)COC[C@]2(c2cc(NC(=O)c3ccc(F)cn3)ccc2F)N=C1N [Example 12, N-(3-((3R,4aR,7aS)-2-amino-3,4a-difluoro-3-methyl-3,4,4a,5,7,7a-hexahydrofuro[3,4-b]pyridin-7a-yl)-4-fluorophenyl)-5-fluoropicolinamide]	103	7.62	1.67	–	–	–	–	–	–	–	–	–	–
C[C@]1(F)C[C@]2(F)COC[C@]2(c2cc(NC(=O)c3ccc(F)cn3)ccc2F)N=C1N [Example 2, N-(3-((3S,4aR,7aS)-2-amino-3,4a-difluoro-3-methyl-3,4,4a,5,7,7a-hexahydrofuro[3,4-b]pyridin-7a-yl)-4-fluorophenyl)-5-fluoropicolinamide]	–	7.51	1.27	37	136	69	244	0.54	0.56	25	24	48	47
NC1=N[C@@]2(c3cc(NC(=O)c4ccc(F)cn4)ccc3F)COC[C@H]2C[C@@]1(F)CF [Example 20, N-(3-((3S,4aS,7aS)-2-amino-3-fluoro-3-(fluoromethyl)-3,4,4a,5-tetrahydrofuro[3,4-b]pyridin-7a-yl)-4-fluorophenyl)-5-fluoropicolinamide]	103	6.85	0.71	–	–	–	–	–	–	–	–	–	–
COc1cnc(C(=O)Nc2ccc(F)c([C@]34COC[C@@]3(F)C[C@](C)(F)C(N)=N4)c2)cn1 [Example 5, N-(3-((3S,4aR,7aS)-2-amino-3,4a-difluoro-3-methyl-3,4,4a,5,7,7a-hexahydrofuro[3,4-b]pyridin-7a-yl)-4-fluorophenyl)-5-methoxypyrazine-2-carboxamide]	–	7.77	0.91	204	695	174	598	1.17	1.16	40	47	41	45

Further lines, with some results ahead:

inhibition at 10 µM (human BACE1 [1]) [%]	pKi (human BACE1 [2])	efflux ratio at 60 min, 0.5 μM (P-gp (MDR1))	concentration at 3 h ([3]; Brain, 10 mg/kg p.o.) [ng/g]	concentration at 3 h ([3]; Brain, 30 mg/kg p.o.) [ng/g]	concentration at 3 h ([3]; Plasma, 10 mg/kg p.o.) [ng/g]	concentration at 3 h ([3]; Plasma, 30 mg/kg p.o.) [ng/g]	Kp at 3 h ([3]; 10 mg/kg p.o.)	Kp at 3 h ([3]; 30 mg/kg p.o.)	SMILES	Aβ40 reduction (Aβ40 peptide; Brain, 10 mg/kg p.o.) [%]	Aβ40 reduction (Aβ40 peptide; Brain, 30 mg/kg p.o.) [%]	Aβ40 reduction (Aβ40 peptide; Plasma, 10 mg/kg p.o.) [%]	Aβ40 reduction (Aβ40 peptide; Plasma, 30 mg/kg p.o.) [%]
111	7.19	1.19	–	–	–	–	–	–	COc1ccc(C(=O)Nc2ccc(F)c([C@]34COC[C@H]3C[C@](F)(CF)C(N)=N4)c2)nc1 [Example 15, N-(3-((3R,4aS,7aS)-2-amino-3-fluoro-3-(fluoromethyl)-3,4,4a,5-tetrahydrofuro[3,4-b]pyridin-7a-yl)-4-fluorophenyl)-5-methoxypicolinamide]	–	–	–	–
103	6.70	0.89	–	–	–	–	–	–	NC1=N[C@@]2(c3cc(NC(=O)c4ccc(F)cn4)cc(F)c3F)COC[C@H]2C[C@@]1(F)CF [Example 23, N-[3-[(3S,4aS,7aS)-2-amino-3-fluoro-3-(fluoromethyl)-4,4a,5,7-tetrahydrofuro[3,4-b]pyridin-7a-yl]-4,5-difluoro-phenyl]-5-fluoro-pyridine-2-carboxamide]	–	–	–	–
105	6.96	1.31	–	–	–	–	–	–	COc1cnc(C(=O)Nc2cc(F)c(F)c([C@]34COC[C@H]3C[C@](F)(CF)C(N)=N4)c2)cn1 [Example 18, N-[3-[(3R,4aS,7aS)-2-amino-3-fluoro-3-(fluoromethyl)-4,4a,5,7-tetrahydrofuro[3,4-b]pyridin-7a-yl]-4,5-difluoro-phenyl]-5-methoxy-pyrazine-2-carboxamide]	–	–	–	–
103	6.89	0.82	–	–	–	–	–	–	COc1cnc(C(=O)Nc2cc(F)c(F)c([C@]34COC[C@H]3C[C@@](F)(CF)C(N)=N4)c2)cn1 [Example 24, N-[3-[(3S,4aS,7aS)-2-amino-3-fluoro-3-(fluoromethyl)-4,4a,5,7-tetrahydrofuro[3,4-b]pyridin-7a-yl]-4,5-difluoro-phenyl]-5-methoxy-pyrazine-2-carboxamide]	–	–	–	–
